The values below come from patent publication EP4008716A1, “NOVEL INHIBITORS OF INSULIN-LIKE GROWTH FACTOR 2 MRNA BINDING PROTEINS” (Martin-Luther-Universität Halle-Wittenberg, priority 2020, dated 2022).

pEC50: −log10 of the molar value.

In one experiment the test system is ES-2 cells. The experiment in a line: Cytotoxicity / cell vitality by cell confluency (IncuCyte live-cell imaging) relative to DMSO controls. The format is cell-based. The following applies: Homo sapiens, ovarian cancer-derived ES-2 cells, 72 h post compound application, eleven concentrations, two-fold dilution from 20µM, mean of three independent studies. The protocol: All novel inhibitors were explored for their cytotoxic activity in ovarian cancer-derived ES-2 cells. In these cell models, BTYNB was prior shown to impair cell vitality and metastatic potential in vitro and cancer mouse models (15). For the respective studies ES-2 cells were plated and exposed to increasing concentration of the compounds and cell vitality was monitored by determining cell confluency relative to DMSO controls using an IncuCyte cell imaging system, essentially as described recently (15). For determining the impact of the developed compounds on ES-2 cell vitality, cells were cultured in Dulbecco's modified eagle medium (DMEM) containing phenol red, 4.5 g/L D-Glucose, 0.11 g/L sodium pyruvate, 10% (v/v) fetal bovine serum (FBS) and 2 mM GlutaMAX (Sigma-Aldrich, Darmstadt, Germany). Cells were maintained in under humidified conditions at 37 °C, 5% CO2. For cytotoxicity studies, cells were seeded in 96-well flat-bottom plates at 2 x 10^3 cells per well in 100 µL supplemented DMEM and incubated for 24 h prior to addition of BTYNB derivatives. Compounds were analyzed at eleven concentrations using a two-fold dilution with an initial compound concentration of 20µM in DMSO (solvent). Cells treated with 0.002% (v/v) DMSO served as controls. Cytotoxicity of compound concentrations was determined 72 h post compound application by monitoring cell confluency using an IncuCyte Systems for Live-Cell Imaging. Cell confluency was determined with the IncuCyte 2019B Rev2 software. Confluency of controls was set to 1 (100%) and altered confluency at distinct compound concentrations was calculated as relative confluency. The mean relative confluency at compound concentrations was analyzed in three independent studies with three technical replicates each. The mean values of three analyses were plotted against the logarithmic concentration of compounds and fitted by the non-linear module [Sigmoidal, 4PL, X is log(concentration)] using GraphPad Prism V9(86) for macOS. In Table 1 compounds with EC50 values, indicating the potency of the 58 developed compounds to impair cell vitality, are listed. […] Table 2: EC-values of the synthesized compounds of formula (I)
In general, pEC50 refers to the negative decadic logarithm of the EC50, by convention in mol/L. A high value points to a low EC50. In turn, `NC(=O)c1ccccc1OCc1ccc(Cl)s1` [compound 1, 2-[(5-chlorothiophen-2-yl)methoxy]benzamide] showed a pEC50 of 5.25. Still for that read-out and setting: the same measure for `COc1ccc(C(=O)Nc2sc(Cc3ccccc3)cc2C(N)=O)cc1COc1ccc(Cl)cc1Cl` [compound 47, 5-Benzyl-2-{3-[(2,4-dichlorophenoxy)methyl]-4-methoxybenzamido}thiophene-3-carboxamide]: 6.53; for `NC(=O)c1ccccc1OCC(=O)c1ccc(Br)cc1` [compound 19, 2-[2-(4-Bromophenyl)-2-oxoethoxy]benzamide]: 5.53; for `NC(=O)c1ccccc1NC(=O)c1ccc(Cl)c(Cl)c1` [compound 12, N-[2-(aminocarbonyl)phenyl]-3,4-dichlorobenzamide]: 5.73. Same read-out and setting: the same measure for `NC(=O)c1ccccc1NC(=O)CN1CCN(Cc2ccc(Cl)c(Cl)c2)CC1` [compound 20, 2-({[4-(3,4-Dichlorobenzyl)-1-piperazinyl]acetyl}amino)benzamide]: 5.91; for `O=c1[nH]c(-c2ccc(OCc3ccccc3F)cc2)nc2ccccc12` [compound 4, 2-{4-[(2-Fluorobenzyl)oxy]phenyl}-4(3H)-quinazolinone]: 6.60. The same measure, in the same setting: with `NC(=O)c1c(NC(=O)c2ccc(Cl)s2)sc2c1CCC2` [compound 29, 2-{[(5-Chloro-2-thienyl)carbonyl]amino}-5,6-dihydro-4H-cyclopenta[b]thiophene-3-carboxamide] the figure was 5.20; with `COc1ccc(OCc2cc(-c3nc4sc(Cc5ccccc5)cc4c(=O)[nH]3)ccc2OC)cc1` [compound 5, 6-Benzyl-2-{4-methoxy-3-[(4-methoxyphenoxy)methyl]phenyl}thieno[2,3-d]pyrimidin-4(3H)-one], 5.95; with `CC(Sc1nnc(NC(=O)c2ccccc2)s1)c1nc2ccccc2c(=O)[nH]1` (stereo not drawn) [compound 6, N-(5-{[1-(4-oxo-3,4-dihydro-2-quinazolinyl)ethyl]thio}-1,3,4-thiadiazol-2-yl)benzamide], 5.39. For the compound `NC(=O)c1ccccc1NC(=O)CN1CCN(Cc2ccc(Cl)cc2)CC1` [compound 23, 2-({[4-(4-Chlorobenzyl)-1-piperazinyl]acetyl}amino)benzamide], the pEC50 was 5.52.

`NC(=O)c1ccccc1NC(=O)C1CCN(C(=O)c2cccs2)CC1` [compound 11, N-[2-(aminocarbonyl)phenyl]-1-(2-thienylcarbonyl)-4-piperidinecarboxamide] gave a pEC50 of 5.29. Compared with the last compound, the pEC50 is 0.23 log units lower. Same read-out and setting: the same measure for `CCc1cc(C(=O)Nc2sc(Cc3ccccc3)cc2C(N)=O)cs1` [compound 32, 5-Benzyl-2-{[(5-ethyl-3-thienyl)carbonyl]amino}-3-thiophenecarboxamide]: 5.72; for `NC(=O)c1cc(Cc2ccccc2)sc1NC(=O)Cc1cccs1` [compound 34, 5-Benzyl-2-[(2-thienylacetyl)amino]-3-thiophenecarboxamide]: 5.94; for `CC(C)c1cc(C(N)=O)c(NC(=O)Cc2ccc(Cl)c(Cl)c2)s1` [compound 42, 2-{[(3,4-Dichlorophenyl)acetyl]amino}-5-isopropyl-3-thiophenecarboxamide]: 5.61.

As to `NC(=O)c1ccccc1NC(=O)c1cc(Cl)cc(Cl)c1` [compound 18, N-[2-(aminocarbonyl)phenyl]-3,5-dichlorobenzamide], the pEC50 was 5.29. On the same count and under the same terms, with `Cc1ccc(C(=O)Nc2ccccc2C(N)=O)s1` [compound 2, N-[2-(aminocarbonyl)phenyl]-5-methyl-2-thiophenecarboxamide] the figure was 5.69; with `NC(=O)c1ccccc1NC(=O)CN1CCN(Cc2c(Cl)cccc2Cl)CC1` [compound 22, 2-({[4-(2,6-Dichlorobenzyl)-1-piperazinyl]acetyl}amino)benzamide], 5.19. In the case of `COc1ccc(C(=O)Nc2sc(C(C)C)cc2C(N)=O)cc1COc1ccccc1Cl` [compound 46, 2-({3-[(2-Chlorophenoxy)methyl]-4-methoxybenzoyl}amino)-5-isopropyl-3-thiophenecarboxamide], the pEC50 is 5.65. Same read-out and setting: with `NC(=O)c1cc(Cc2ccccc2)sc1NC(=O)COc1ccccc1` [compound 40, 5-Benzyl-2-[(phenoxyacetyl)amino]-3-thiophenecarboxamide] the figure was 5.62; with `NC(=O)c1cc(Cc2ccccc2)sc1NC(=O)c1ccc2c(c1)OCO2` [compound 38, N-[3-(aminocarbonyl)-5-benzyl-2-thienyl]-1,3-benzodioxole-5-carboxamide], 5.88; with `NC(=O)c1ccccc1NC(=O)c1ccccc1` [compound 14, N-(2-carbamoylphenyl)benzamide], 4.98.

The compound `COc1ccc(C(=O)Nc2sc(Cc3ccccc3)cc2C(N)=O)cc1COc1ccccc1Cl` [compound 44, 5-Benzyl-2-({3-[(2-chlorophenoxy)methyl]-4-methoxybenzoyl}amino)-3-thiophenecarboxamide] had a pEC50 of 6.36. This pEC50 is 1.38 log units higher than that of the compound before.

Compound `NC(=O)c1ccccc1NC(=O)c1cccc(COc2cccc(Cl)c2)c1` [compound 17, 2-({3-[(3-Chlorophenoxy)methyl]benzoyl}amino)benzamide] showed a negative-log EC50 (pEC50) of 6.17.

In the case of `NC(=O)c1cc(Cc2ccccc2)sc1NC(=O)CN1CCN(Cc2ccc(Cl)c(Cl)c2)CC1` [compound 55, 2-{2-[4-(3,4-Dichlorobenzyl)piperazin-1-yl]acetamido}-5-benzylthiophene-3-carboxamide], the negative logarithm of the EC50 (pEC50) is 5.39. Same read-out and setting: with `NC(=O)c1ccccc1NC(=O)CN1CCN(Cc2ccc(Cl)cc2Cl)CC1` [compound 21, 2-({[4-(2,4-Dichlorobenzyl)-1-piperazinyl]acetyl}amino)benzamide] the figure was 6.00.

Staying with this experiment, now noted: ovarian cancer-derived ES-2 cells, 72 h post compound application, eleven concentrations, two-fold dilution from 20µM, mean of three independent studies.
“2-({4-[(2-Bromophenoxy)methyl]benzoyl}amino)-5-isopropyl-3-thiophenecarboxamide [compound 57]” had a pEC50 of 5.43.

A further experiment has as its system ES-2 cells. The experiment is described as above. Format: cell-based. The following applies: Homo sapiens, determined in 11 analyses with three technical replicates each.
As for `NC(=O)c1ccccc1N=Cc1ccc(Br)s1` [BTYNB, 2-{[(5-bromo-2-thienyl)methylene]amino}benzamide], the pEC50 was 5.23.
